# Source: ChEMBL document CHEMBL5226321, “Ivermectin: A Promising Therapeutic for Fighting Malaria. Current Status and Perspective” (J Med Chem, 2021)
# Legend:
# Aedes aegypti [1] = assay: Insecticidal in Aedes aegypti assessed as mortality rate membrane-fed with compound treated human blood at 10 to 100 microg/mL observed within 7 days relative to control; assay type: functional, organism-based; details: dose 10-100 µg/ml, time 7.0 day
# Anopheles stephensi [2] = assay: Insecticidal in Anopheles stephensi assessed as mortality rate fed with blood of compound treated rabbits at 0.34 mg/kg, sc 4 to 6 days post-injection relative to control; assay type: functional, organism-based; details: time 4-6 day
# Anopheles sp. [3] = assay: Insecticidal in Anopheles sp. assessed as lethal concentration membrane-fed with compound treated pig blood; assay type: functional
# Anopheles sp. [4] = assay: Insecticidal in Anopheles sp. assessed as lethal concentration membrane-fed with compound treated blood observed after 4 days; assay type: functional, organism-based; details: time 4.0 day
# Anopheles sp. [5] = assay: Insecticidal in Anopheles sp. assessed as mortality fed with compound treated human blood at 400 microg/kg in the presence of 6 mg/kg diethylcarbamazine citrate observed in 24 hrs relative to control; assay type: functional, organism-based; details: dose 400.0 µg/kg
# Anopheles stephensi [6] = assay: Insecticidal in Anopheles stephensi larvae measured after 48 hrs; assay type: functional
# Plasmodium vivax [7] = assay: Antimalarial activity against Plasmodium vivax assessed as reduction in infection in Anopheles sp. mosquito midgut fed with blood isolated from compound treated parasite-infected human at 40 ng/ml observed after 7 days relative to control; assay type: functional, organism-based; details: time 7.0 day
# Anopheles sp. [8] = assay: Insecticidal in Anopheles sp. infected with Plasmodium falciparum gametocytes assessed as reduction in fecundity fed with compound treated bovine blood at 200 microg/kg feeding at 28 days after injection relative to control; assay type: functional, organism-based; design: scale not given: the % may be the effect or the level left; details: dose 200.0 µg/kg
# Anopheles sp. [9] = assay: Insecticidal in Anopheles sp. assessed as number of eggs per female fed with compound treated human blood administered as a single dose at 10 microg/ml fed at 4 hrs post treatment; assay type: functional, organism-based; details: dose 10.0 µg/ml
# Anopheles sp. [10] = assay: Insecticidal in Anopheles sp. assessed as mortality rate fed with compound treated human blood at 400 microg/kg observed in 48 hrs relative to control; assay type: functional, organism-based; details: dose 400.0 µg/kg
# Culex pipiens = assay: Insecticidal in Culex pipiens larvae measured after 48 hrs; assay type: functional
# Plasmodium berghei [11] = assay: In vivo antimalarial activity against liver stage Plasmodium berghei infected in mouse assessed as increase in mouse survival days at 10 mg/kg; assay type: functional, organism-based
# Anopheles sp. [12] = assay: Insecticidal in Anopheles sp. infected with Plasmodium falciparum gametocytes assessed as reduction in survival fed with compound treated bovine blood at 200 microg/kg feeding at 2 days after injection relative to control; assay type: functional, organism-based; details: dose 200.0 µg/kg
# Anopheles stephensi [13] = assay: Insecticidal in Anopheles stephensi assessed as lethal concentration membrane-fed with compound treated blood observed after 4 days; assay type: functional, organism-based; details: time 4.0 day
# Plasmodium vivax [14] = assay: Antimalarial activity against Plasmodium vivax assessed as reduction in […] in Anopheles darlingi mosquito fed with blood containing plasma isolated from compound treated human observed after 4 days relative to control; assay type: functional, organism-based; details: time 4.0 day, dose or concentration not given here
# Anopheles sp. [15] = assay: Insecticidal in Anopheles sp. infected with Plasmodium falciparum gametocytes assessed as mortality fed with compound treated bovine blood at 200 microg/kg observed within 4 days feeding at 7 days post treatment relative to control; assay type: functional, organism-based; details: dose 200.0 µg/kg, time 4.0 day
# Anopheles sp. [16] = assay: Insecticidal in Anopheles sp. assessed as mortality rate fed with blood of compound treated human at 200 microg/kg administered once caught on day 1 after mass drug administration observed within 5 days relative to control; assay type: functional, organism-based; details: dose 200.0 µg/kg, time 5.0 day
# Aedes albopictus = assay: Insecticidal in Aedes albopictus assessed as mortality rate membrane-fed with compound treated human blood at 10 to 100 microg/mL observed within 7 days relative to control; assay type: functional, organism-based; details: dose 10-100 µg/ml, time 7.0 day
# Anopheles arabiensis [17] = assay: Insecticidal in Anopheles arabiensis assessed as reduction in survival rate fed with blood of compound treated human observed for […] relative to control; assay type: functional, organism-based
# Anopheles darlingi = assay: Insecticidal in Anopheles darlingi infected with Plasmodium vivax assessed as lethal concentration fed with compound treated human blood observed for 7 days; assay type: functional, organism-based; details: time 7.0 day
# Anopheles minimus = assay: Insecticidal in Anopheles minimus assessed as lethal concentration membrane-fed with compound treated human blood at 200 microg/kg observed for 7 days; assay type: functional, organism-based; details: dose 200.0 µg/kg, time 7.0 day
# Anopheles stephensi [18] = assay: Insecticidal in Anopheles stephensi assessed as mortality rate fed with blood of compound treated mouse at […], sc before 12 hrs and observed after 36 hrs relative to control; assay type: functional, organism-based
# Anopheles sp. [19] = assay: Insecticidal in Anopheles sp. assessed as mean plasma concentration causing death within 2-4 days fed with compound treated pig blood administered as a single dose at 600 microg/kg at 1 day post treatment observed within 2 to 4 days; assay type: functional, organism-based; details: dose 600.0 µg/kg, time 2-4 day, pooled result: one value given for 4 cell lines, strains, targets or settings
# Anopheles arabiensis [20] = assay: Insecticidal in Anopheles arabiensis assessed as reduction in fecundity fed with compound treated bovine blood at 200 microg/kg relative to control; assay type: functional, organism-based; design: scale not given: the % may be the effect or the level left; details: dose 200.0 µg/kg
# Aedes aegypti [21] = assay: Insecticidal in Aedes aegypti assessed as reduction in survivorship fed with blood of compound treated human at 150 microg/kg administered once; assay type: functional, organism-based; details: dose 150.0 µg/kg
# Plasmodium berghei [22] = assay: In vivo antimalarial activity against blood stage Plasmodium berghei transfected with GFP infected in mouse assessed as increase in mouse survival days at 0.5 mg/kg for 3 days; assay type: functional, organism-based; details: time 3.0 day
# Anopheles sp. [23] = assay: Insecticidal in Anopheles sp. infected with Plasmodium falciparum gametocytes assessed as mortality fed with compound treated bovine blood at 200 microg/kg observed within 5.5 days feeding at 15 days post treatment relative to control; assay type: functional, organism-based; details: dose 200.0 µg/kg, time 5.5 day
# Anopheles sp. [24] = assay: Insecticidal in Anopheles sp. assessed as mortality fed with compound treated human blood at 400 microg/kg in the presence of 6 mg/kg diethylcarbamazine citrate died in 9 days relative to control; assay type: functional, organism-based; details: dose 400.0 µg/kg, time 9.0 day
# Plasmodium berghei [25] = assay: In vivo antimalarial activity against blood stage Plasmodium berghei transfected with GFP infected in mouse assessed as supression of parasitemia at 0.5 mg/kg for 3 days relative to control; assay type: functional, organism-based; details: time 3.0 day
# Anopheles sp. [26] = assay: Insecticidal in Anopheles sp. infected with Plasmodium falciparum gametocytes assessed as reduction in survival fed with compound treated bovine blood at 200 microg/kg feeding at 7 days after injection relative to control; assay type: functional, organism-based; details: dose 200.0 µg/kg
# Anopheles sp. [27] = assay: Insecticidal in Anopheles sp. assessed as mortality rate fed with blood of compound treated dog at 10 to 2500 microg/kg observed after 48 hrs relative to control; assay type: functional, organism-based; details: dose 10-2500 µg/kg
# Anopheles sp. [28] = assay: Insecticidal in Anopheles sp. assessed as mortality fed with treated bovine blood containing 1% of compound observed within 4 days after a blood meal on 2 days post treatment relative to control; assay type: functional, organism-based; details: time 4.0 day
# Anopheles sp. [29] = assay: In vivo Insecticidal in Anopheles sp. assessed as lethality membrane-fed with compound treated human blood at 400 microg/kg per day in presence of combination of 120 mg dihydroartemisinin, 960 mg piperaquine and 30 mg primaquine observed after 7 days; assay type: functional, organism-based; details: dose 400.0 µg/kg, time 7.0 day
# Anopheles arabiensis [30] = assay: Insecticidal in Anopheles arabiensis assessed as lethal concentration membrane-fed with compound treated bovine blood; assay type: functional
# Plasmodium vivax [31] = assay: Antimalarial activity against Plasmodium vivax assessed as reduction in […] in Anopheles sp. mosquito fed with blood containing plasma isolated from compound treated human observed after 4 days relative to control; assay type: functional, organism-based; details: time 4.0 day, dose or concentration not given here
# Anopheles gambiae = assay: Insecticidal in Anopheles gambiae assessed as median lethal concentration fed with compound treated bovine blood observed after 9 days; assay type: functional, organism-based; details: time 9.0 day
# Anopheles sp. [32] = assay: Insecticidal in Anopheles sp. assessed as lethal concentration membrane-fed with compound treated blood; assay type: functional, organism-based
sequence,measurement,setting,value
IVERMECTIN,mortality,Aedes aegypti [1],100%
same,mortality,Anopheles stephensi [2],93%
same,LC50,Anopheles sp. [3],0.0178 µg/mL
same,LC50,Anopheles sp. [4],1.47 µg/mL
same,mortality,Anopheles sp. [5],70%
same,LC50,Anopheles stephensi [6],5.85 ppb
same,inhibition,Plasmodium vivax [7],61.3%
same,Activity,Anopheles sp. [8],20%
same,Activity,Anopheles sp. [9],22.4
same,mortality,Anopheles sp. [10],69%
same,LC50,Culex pipiens,3.94 ppb
same,Survival,Plasmodium berghei [11],10 days
same,Survival,Anopheles sp. [12],86%
same,LC50,Anopheles stephensi [13],0.007 µg/mL
same,inhibition,Plasmodium vivax [14],99.9%
same,mortality,Anopheles sp. [15],100%
same,mortality,Anopheles sp. [16],75%
same,mortality,Aedes albopictus,100%
same,Survival,Anopheles arabiensis [17],50%
same,LC5,Anopheles darlingi,14.8 ng/mL
same,LC25,Anopheles darlingi,0.0278 µg/mL
same,LC50,Anopheles darlingi,0.0432 µg/mL
same,LC50,Anopheles minimus,0.0264 µg/mL
same,mortality,Anopheles stephensi [18],100%
same,Cp,Anopheles sp. [19],15.3 ng/mL
same,Activity,Anopheles arabiensis [20],79%
same,LC50,Aedes aegypti [21],0.601 µg/mL
same,Survival,Plasmodium berghei [22],23 days
same,mortality,Anopheles sp. [23],100%
same,mortality,Anopheles sp. [24],100%
same,Activity,Plasmodium berghei [25],40%
same,Survival,Anopheles sp. [26],83%
same,mortality,Anopheles sp. [27],90%
same,mortality,Anopheles sp. [28],60%
same,LC50,Anopheles sp. [29],0.00286 µg/mL
same,LC50,Anopheles arabiensis [30],7.79 ppb
same,inhibition,Plasmodium vivax [31],99.9%
same,LC50,Anopheles gambiae,19.8 ppb
same,MLC,Anopheles sp. [32],50 ppm
